Results on 23 compounds are retold here after patent US9138434B2, “Octahydrothienoquinoline derivative, pharmaceutical composition comprising derivative, and use of these” (KISSEI PHARMACEUTICAL CO., LTD., priority 2011, dated 2015).

Structures are written as SMILES. Like-named read-outs stand apart in the source and are kept apart here. Where only a bound is given, the exact number is not on record here.

Assay [1] has as its target T1, human dopamine D2 receptor (Homo sapiens, UniProt P14416).
T1 construct: accorded to it of human dopamine D2 receptor (NM1-000795) registered on NCBI completely; expressed in transfected cells; membrane homogenates
Briefly: Stimulating activities on human dopamine D2 receptor, [35S]GTPγS binding to hD2R#7 cell membrane homogenates. It is filed as biochemical. Here is the method:
Identification Test of Stimulating Activities on Human Dopamine D2 Receptor
4) Preparation of Membrane Homogenates from hD2R#7 Cells
(2) Preparation of Membrane Homogenates from hD2R#7 Cells
The cells, which were grown to confluence in 150 mm dishes (IWAKI), were harvested with isotonic buffer (50 mM Tris (Sigma), 2 mM ethylenediamine-tetraacetic acid (Invitrogen), and 125 mM sodium chloride (Wako Pure Chemicals), pH 7.4) and centrifuged at 1880×g and 4° C. for 10 minutes, and the cell pellets were then suspended in isotonic buffer. After being subjected to one cycle of freezing and thawing, the cells were centrifuged at 1880×g and 4° C. for 10 minutes, and the cell pellets were suspended in isotonic buffer. The cells were centrifuged at 1880×g and 4° C. for 10 minutes, and the cell pellets were suspended in isotonic buffer and homogenate buffer (10 mM sodium bicarbonate (Nacalai) and 5 mM ethylenediamine-tetraacetic acid, pH 7.5). The volume ratio of isotonic-to-homogenate buffer was 2. The cells were sonicated and centrifuged at 1880×g and 4° C. for 10 minutes, and the supernatants were ultracentrifuged at 80000×g and 4° C. for 30 minutes. The final cell pellets were suspended in homogenate buffer containing protease inhibitor cocktail (Nacalai) and stored at −80° C. until use. The protein concentration was determined using BCA Protein Assay Kit (Pierce) in accordance with the manufacturer's instructions.
5) Determination of Stimulating Activities of Human Dopamine D2 Receptor
The stimulating activities of human dopamine D2 receptor was determined by measuring the binding potential of [^35S]-guanosine 5′-[gamma-thio]triphosphate ([^35S]GTPγS, PerkinElmer) according to the method described by Newman-Tancredi A. et al. (Naunyn-Schmiedeberg's Arch Pharmacol, 1999, vol. 359, pp. 447-453) with a minor modification. Test compounds and dopamine hydrochloride (Fluka) as positive control were dissolved in dimethyl sulfoxide (CARLBIOCHEM), resulting in 30 mM. The both compounds were diluted with assay buffer (50 mM Tris, 100 mM sodium chloride, 5 mM magnesium chloride (Nacalai), 1 mM ethylenediamine-tetraacetic acid, 1 mM dithiothreitol (Wako Pure Chemicals), 10 μM guanosine diphosphate (Wako Pure Chemicals) and 0.5% bovine serum albumin (Sigma), pH 7.4) to a final concentration of 100 pM (only test compounds), 1 nM, 10 nM, 100 nM, 1 μM, 10 μM and 100 μM (only dopamine hydrochloride). The above membrane homogenates and [^35S]GTPγS were diluted with assay buffer to a final concentration of 0.06 mg/mL and 0.6 nM, respectively. The serial diluted compounds (50 μL), the diluted membrane homogenates (50 μL) and the diluted [^35S]GTPγS (50 μL) were mixed on multi-screen 96-well plate (Millipore) and shaken lightly at room temperature for 60 minutes. The reaction was terminated by vacuum filtration with three times washes of ice-cold wash buffer (50 mM Tris, 100 mM sodium chloride, 5 mM magnesium chloride, and 1 mM ethylenediamine-tetraacetic acid, pH 7.4). After drying the bottoms of the plate at 60° C., MicroScinti-40 (PerkinElmer) (30 μL) was added in the plate. The tops of the plate were sealed by TopSeal-A (PerkinElmer), and the radioactivity was determined in a TopCount NXT (registered mark) (PerkinElmer) after shaking lightly for 5-10 minutes. The data was analyzed by nonlinear regression and sigmoidal dose-response curve fitting using GraphPad PRISM 4.0 (GraphPad Software), and values of EC50 (concentration of the compound producing half the maximal effect of the compound) were calculated. The data was presented as mean value (n=2).
(GTPγS resists hydrolysis and so accumulates on activated G proteins.)

The target of assay [2] is T2, human serotonin 5-HT2B receptor (Homo sapiens, UniProt P41595).
T2 construct: expressed in transfected cells; host or cells: HEK293, transient transfection (Lipofectamine 2000)
T2 sequence (P41595 whole entry): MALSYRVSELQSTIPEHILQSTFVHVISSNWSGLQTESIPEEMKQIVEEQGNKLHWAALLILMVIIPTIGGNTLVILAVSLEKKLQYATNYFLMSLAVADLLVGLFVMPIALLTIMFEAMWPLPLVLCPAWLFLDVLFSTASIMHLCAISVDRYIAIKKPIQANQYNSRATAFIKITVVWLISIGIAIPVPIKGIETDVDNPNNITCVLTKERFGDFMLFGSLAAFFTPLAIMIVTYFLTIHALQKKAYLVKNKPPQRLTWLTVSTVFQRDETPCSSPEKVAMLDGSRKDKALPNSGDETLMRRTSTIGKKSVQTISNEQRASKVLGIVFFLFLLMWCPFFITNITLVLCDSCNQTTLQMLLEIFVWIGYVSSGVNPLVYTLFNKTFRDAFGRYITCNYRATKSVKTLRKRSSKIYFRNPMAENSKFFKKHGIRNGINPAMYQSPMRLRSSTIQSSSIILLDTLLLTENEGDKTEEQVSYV
The experiment in a line: Stimulating activities on human serotonin 5-HT2B receptor, intracellular calcium in forced expression HEK293 cells. It is filed as cell-based. As to conditions: intracellular calcium (Fluo-4), HEK293 cells transiently expressing human 5-HT2B receptor; mean, n=2; read-out: EC50. How it is done: Identification Test of Stimulating Activities on Human Serotonin 5-HT2B Receptor
The PCR was performed using forward primer depicted as sequence ID No. 4, reverse primer depicted as sequence ID No. 5 and KOD-Plus-Ver.2 (TOYOBO) as template of human brain hippocampus cDNA (Clontech). The PCR product was inserted into a plasmid (pcDNA3.1/V5-His-Topo (registered mark)). The PCR product-inserted plasmid was transformed in E. coli (One Shot TOP10 Chemically Competent). That E. coli was incubated in LB agar medium contained 50 μg/mL ampicillin for a day. A selected colony was incubated in LB medium contained 50 μg/mL ampicillin and PCR product-inserted plasmid was purified with QIAprep Spin Miniprep Kit (QIAGEN).
Mostly confluent HEK293 cells were washed with PBS, followed by exfoliation with 0.05% trypsin-EDTA and the cells were suspended in D-MEM liquid medium (phenol red-free, low glucose, pyruvic acid were contained) containing fetal bovine serum (final concentration: 10%) and GlutaMax (registered mark)I (final concentration: 2 mM). The suspension was scattered at 5×10^4 cells/100 L/well on poly-D-lysine-coated 96-well microplate (BD BioCoat (registered mark)). The scattered cells were cultured in 5% CO2 incubator at 37° C. Human serotonin 5-HT2B receptor expression plasmid was transfected in that cells according to the procedure seeing below.
Human serotonin 5-HT2B receptor expression plasmid and Lipofectamine (registered mark) 2000 (Invitrogen) were diluted to 0.008 g/L and 0.016 g/L each other with OPTI-MEM (registered mark)I Reduced-Serum Medium and incubated at room temperature. After incubation, the human serotonin 5-HT2B receptor exoression plasmid-diluted liquid and Lipofectamine (registered mark) 2000-diluted liquid were mixed at an equal volume and incubated at room temperature to form a complex. The complex was dispensed at 50 μL/well on the cells prepared above. The cells were incubated in 5% CO2 incubator at 37° C. for 2 days. After incubation, the cells were used as human serotonin 5-HT2B receptor forced expression cells for measurement of intracellular calcium concentration.
3) Determination of Stimulating Activities of Human Serotonin 5-HT2B Receptor
The stimulating activities of human serotonin 5-HT2B receptor was determined by measuring of intracellular calcium concentration. The 30 mM dimethyl sulfoxide (DMSO) solution contained test compounds or serotonin hydrochloride (Sigma) as positive control, was diluted with assay buffer ((HBSS), 20 mM HEPES, 1.3 mM calcium chloride, 0.5 mM magnesium chloride and 0.4 mM magnesium sulfate were contained, pH7.4) to appropriate concentration.
The forced expression cells were washed with assay buffer, and 100 μL/well of fluorescent calcium indicator (Fluo-4 NW Calcium Assay Kit) was added and incubated in 5% CO2 incubator at 37° C. After incubation, 50 μL/well of each test compound was added, and the concentration of intracellular calcium was measured as fluorescent signal with FlexStation (registered mark) II (Molecular Devices). The data was analyzed by nonlinear regression and sigmoidal dose-response curve fitting using GraphPad PRISM 4.0, and values of EC50 (concentration of the compound producing half the maximal effect of the compound) were calculated. The data was presented as mean value (n=2).
A general note: Calcium assays in cells follow changes in intracellular calcium, usually with a dye or a luminescent sensor.

Where [3] appears, read: [35S]GTPγS binding, membrane homogenates of HEK293 cells stably expressing human D2 receptor, mean, n=2, read-out: EC50.

T1 sequence (P14416 whole entry): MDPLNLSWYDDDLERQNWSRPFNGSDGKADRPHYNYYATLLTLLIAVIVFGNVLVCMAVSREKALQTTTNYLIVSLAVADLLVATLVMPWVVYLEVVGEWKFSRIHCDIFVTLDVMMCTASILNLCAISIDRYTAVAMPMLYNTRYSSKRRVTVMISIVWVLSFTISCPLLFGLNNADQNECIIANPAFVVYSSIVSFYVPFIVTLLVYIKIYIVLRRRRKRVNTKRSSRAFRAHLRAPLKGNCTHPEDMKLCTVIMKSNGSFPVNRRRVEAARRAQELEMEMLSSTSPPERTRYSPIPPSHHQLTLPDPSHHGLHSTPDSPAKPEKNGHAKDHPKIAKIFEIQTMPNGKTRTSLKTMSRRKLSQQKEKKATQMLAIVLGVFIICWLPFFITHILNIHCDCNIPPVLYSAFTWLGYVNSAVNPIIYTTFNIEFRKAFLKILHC

For orientation: EC50 means the concentration at which the effect is half-maximal. `CN(C)CCNC(=O)N(CCc1ccccc1)C(=O)[C@@H]1C[C@@H]2Cc3c(sc(N)c3C#N)C[C@H]2N(C)C1` (relative stereo) [1-30, 1-{[(4aR*,6R*,8aR*)-2-amino-3-cyano-8-methyl-4H,4aH,5H,6H,7H,8H,8aH,9H-thieno[3,2-g]quinolin-6-yl]carbonyl}-3-[2-(dimethylamino)ethyl]-1-(2-phenylethyl)urea]: the values for the EC50 in assay [1] (setting [3]) and in assay [2] were 4 nM and greater than 10000 nM, respectively.
Turning to `CN(C)CCNC(=O)N(CC(C)(C)C)C(=O)[C@@H]1C[C@@H]2Cc3c(sc(N)c3C#N)C[C@H]2N(C)C1` (relative stereo) [1-56, 1-{[(4aR*,6R*,8aR*)-2-amino-3-cyano-8-methyl-4H,4aH,5H,6H,7H,8H,8aH,9H-thieno[3,2-g]quinolin-6-yl]carbonyl}-3-[2-(dimethylamino)ethyl]-1-(2,2-di-methylpropyl)urea], in assay [1] (setting [3]), the EC50 was 9 nM.
Regarding `CCCN(C(=O)NCC(C)(C)N(C)C)C(=O)[C@@H]1C[C@@H]2Cc3c(sc(N)c3C#N)C[C@H]2N(C)C1` (relative stereo) [1-82, 1-{[(4aR*,6R*,8aR*)-2-amino-3-cyano-8-methyl-4H,4aH,5H,6H,7H,8H,8aH,9H-thieno[3,2-g]quinolin-6-yl]carbonyl}-3-[2-(dimethylamino)-2-methylpropyl]-1-propylurea], the EC50 is 13 nM in assay [1] (setting [3]) and greater than 10000 nM in assay [2].
As to `CCN(C(=O)NCC(CC)(CC)N(C)C)C(=O)[C@@H]1C[C@@H]2Cc3c(sc(N)c3C#N)C[C@H]2N(C)C1` (relative stereo) [1-84, 1-{[(4aR*,6R*,8aR*)-2-amino-3-cyano-8-methyl-4H,4aH,5H,6H,7H,8H,8aH,9H-thieno[3,2-g]quinolin-6-yl]carbonyl}-3-[2-(dimethylamino)-2-ethylbutyl]-1-ethylurea], in assay [2], the EC50 was greater than 10000 nM.
Consider `CN(C)CCNC(=O)N(CC1CC1)C(=O)[C@@H]1C[C@@H]2Cc3c(sc(N)c3C#N)C[C@H]2N(C)C1` (single isomer, unassigned) [1-36], for which the concentration giving a half-maximal response (EC50) in assay [1] (setting [3]) came out at 10 nM.
For the compound `CCCN(C(=O)NCCNC)C(=O)[C@@H]1C[C@@H]2Cc3c(sc(N)c3C#N)C[C@H]2N(C)C1` [1-2], the values for the 50% effective concentration (EC50) in assay [1] (setting [3]) and in assay [2] were 12 nM and greater than 10000 nM, respectively.
Taken in the same sequence, the figures for `CCNC(=O)N(CCN1CCCC1)C(=O)[C@@H]1C[C@@H]2Cc3c(sc(N)c3C#N)C[C@H]2N(C)C1` [1-6, 1-{[(4aR,6R,8aR)-2-amino-3-cyano-8-methyl-4H,4aH,5H,6H,7H,8H,8aH,9H-thieno[3,2-g]quinolin-6-yl]carbonyl}-3-ethyl-1-[2-(pyrrolidin-1-yl)ethyl]urea] were 11 nM and greater than 10000 nM.
In the case of `CCCN1C[C@H](C(=O)N(CCCN(C)C)C(=O)NCC)C[C@@H]2Cc3c(sc(N)c3C#N)C[C@H]21` [1-13], the half-maximal effective concentration (EC50) in assay [1] (setting [3]) turned out to be 7 nM.
The same measure, in the same setting: in the case of `CCN(C(=O)NCCCOC)C(=O)[C@@H]1C[C@@H]2Cc3c(sc(N)c3C#N)C[C@H]2N(C)C1` [1-21] it was 21 nM.
With `CCN(C(=O)NC)C(=O)[C@@H]1C[C@@H]2Cc3c(sc(N)c3C#N)C[C@H]2N(C)C1` [1-23], the 50% effective concentration (EC50) in assay [1] (setting [3]) is 8 nM; in assay [2], greater than 10000 nM.
`CCN(C(=O)NCc1ccccn1)C(=O)[C@@H]1C[C@@H]2Cc3c(sc(N)c3C#N)C[C@H]2N(C)C1` [1-25] had a concentration giving a half-maximal response (EC50) in assay [1] of 15 nM.
On to `CN(C)CCNC(=O)N(Cc1cccs1)C(=O)[C@@H]1C[C@@H]2Cc3c(sc(N)c3C#N)C[C@H]2N(C)C1` [1-37], for which the EC50 in assay [1] (setting [3]) came to 6 nM.
Turning to `C=CCN(C(=O)NCCN(C)C)C(=O)[C@@H]1C[C@@H]2Cc3c(sc(N)c3C#N)C[C@H]2N(C)C1` [1-39], in assay [1] (setting [3]), the EC50 was determined as 17 nM.
On the same count and under the same terms, in the case of `CCN(C(=O)NCCc1ccccc1CCN(C)C)C(=O)[C@@H]1C[C@@H]2Cc3c(sc(N)c3C#N)C[C@H]2N(C)C1` [1-44] it was 13 nM; in that of `CN(C)CCNC(=O)N(CCCC(F)(F)F)C(=O)[C@@H]1C[C@@H]2Cc3c(sc(N)c3C#N)C[C@H]2N(C)C1` [1-61], 11 nM; in that of `CCCCN(C(=O)NCCN1CCN(C)CC1)C(=O)[C@@H]1C[C@@H]2Cc3c(sc(N)c3C#N)C[C@H]2N(C)C1` [1-66], 14 nM.
On the same count and under the same terms, in the case of `COCCN(C(=O)NCCN1CCCCC1)C(=O)[C@@H]1C[C@@H]2Cc3c(sc(N)c3C#N)C[C@H]2N(C)C1` [1-68] it was 12 nM.
`CCCN(C(=O)NCC(C)(C)CN(C)C)C(=O)[C@@H]1C[C@@H]2Cc3c(sc(N)c3C#N)C[C@H]2N(C)C1` [1-83]: the EC50 in assay [1] (setting [3]) was 6 nM; in assay [2] it was greater than 10000 nM.
Turning to `CCN(C(=O)NCCN(C)c1ccccc1)C(=O)[C@@H]1C[C@@H]2Cc3c(sc(N)c3C#N)C[C@H]2N(C)C1` [1-86], in assay [1] (setting [3]), the concentration giving a half-maximal response (EC50) was determined as 13 nM.
With `CCCCN(C(=O)NCCN(C)CCO)C(=O)[C@@H]1C[C@@H]2Cc3c(sc(N)c3C#N)C[C@H]2N(C)C1` [1-87], in assay [1] (setting [3]), the 50% effective concentration (EC50) was 22 nM.
The same measure, in the same setting: in the case of `CCCCN(C(=O)NCCN(CC)CC)C(=O)[C@H]1CN[C@@H]2Cc3sc(N)c(C#N)c3C[C@H]2C1` [1-88] it was 24 nM.
With `CCCN(C(=O)NC1CN(C)C1)C(=O)[C@@H]1C[C@@H]2Cc3c(sc(N)c3C#N)C[C@H]2N(C)C1` [1-99], the results for the EC50 in assay [1] (setting [3]) and in assay [2] were 8 nM and greater than 10000 nM, respectively.
With `CCCN1C[C@H](CSC)C[C@@H]2c3cccc4[nH]cc(c34)C[C@H]21` [Pergolide, pergolide, reference compound], the EC50 in assay [2] amounted to 287 nM.
